Tested on: root-knot nematode (RKN), Meloidogyne incognita
Test: Root-knot nematode control on tomato, pots infested 48 hours after soil treatment (set 1), gall rating
Assay type: in vivo
Settings: rating scale 0-10
Method: Formulations AA to FF, excluding DD, were tested for efficacy and persistence in soil for controlling root-knot nematode (RKN), Meloidogyne incognita, on tomato. A three-week old tomato (Lycopersicon esculentum, var “Rutgers”) was planted in a 10 cm square pot containing a nonsterile 50:50 sand:soil mixture. Ten replicate pots (five replicates for two sets of tests) were prepared for each rate of application of test formulation. Stock dispersions of each of the test formulations were prepared by dispersing a sufficient amount of test material in 100 ml of water to give rates of application of 0.25, 0.5, 1, and 2 kg a.i./ha. Each pot received 10 ml of the appropriate suspension on the surface immediately around the tomato, and a control treatment for each of the two experimental set of pots received only water. Pots were also prepared as above with the same rates of the 100 ME cadusafos formulation and technical cadusafos. The RKN eggs used in the experiment were separated from a gelatinous matrix by vigorously shaking the roots of heavy galled tomato plants for four minutes in a 1% aqueous sodium hypochlorite solution. The resulting egg suspension was rapidly poured through nested 60, 325, and 500 mesh sieves. The eggs were collected on the 500 mesh sieve and gently rinsed with water to remove any excess sodium hypochlorite. The eggs were taken up in water, and the resulting aqueous suspension was appropriately diluted with water to give about 2000 eggs per plant which results in an effective inoculant level of about 1000 infective larvae per pot. The eggs were counted using a dissecting microscope. All the pots were infested with nematodes by pippetting the inoculum into the openings around the roots of the previously treated tomato transplants. Pots infested with nematodes 48 hours after soil treatment, hereafter referred to as “set 1”. Pots for examination of residual activity, hereafter referred to as “set 2”, were treated and maintained in the greenhouse for seven days prior to nematode infestations. Upon nematode infestation, the pots were maintained in the greenhouse for 28 days and monitored for phytotoxicity symptoms. At the conclusion of the 28 day period, the soil was washed away from the tomato plants roots and rated according to the following scheme: […]

## CCOP(=O)(SC(C)CC)SC(C)CC (stereo not shown) [Technical]
Infested 48 hours after treatment, rate 0.25 Kg/Ha
  Mean Root-Knot Gall Rating: 2.4
Infested 48 hours after treatment, rate 0.5 Kg/Ha
  Mean Root-Knot Gall Rating: 1.2
Second printing of Table 7, 48 hours after treatment, rate 0.25 Kg/Ha
  Mean Root-Knot Gall Rating: 2.4
Second printing of Table 7, 48 hours after treatment, rate 0.5 Kg/Ha
  Mean Root-Knot Gall Rating: 1.2
